Experimental data as given in ChEMBL document CHEMBL1909046, “DrugMatrix in vitro pharmacology data”.

Tests used:
[1] = target: T1, Alpha-2A adrenergic receptor (Homo sapiens, UniProt P08913); format: cell membranes, Sf9, Membrane; settings: sf9; note: in other assays of this panel Not Active means under 50% inhibition at 10 µM
T1 sequence (P08913 whole entry): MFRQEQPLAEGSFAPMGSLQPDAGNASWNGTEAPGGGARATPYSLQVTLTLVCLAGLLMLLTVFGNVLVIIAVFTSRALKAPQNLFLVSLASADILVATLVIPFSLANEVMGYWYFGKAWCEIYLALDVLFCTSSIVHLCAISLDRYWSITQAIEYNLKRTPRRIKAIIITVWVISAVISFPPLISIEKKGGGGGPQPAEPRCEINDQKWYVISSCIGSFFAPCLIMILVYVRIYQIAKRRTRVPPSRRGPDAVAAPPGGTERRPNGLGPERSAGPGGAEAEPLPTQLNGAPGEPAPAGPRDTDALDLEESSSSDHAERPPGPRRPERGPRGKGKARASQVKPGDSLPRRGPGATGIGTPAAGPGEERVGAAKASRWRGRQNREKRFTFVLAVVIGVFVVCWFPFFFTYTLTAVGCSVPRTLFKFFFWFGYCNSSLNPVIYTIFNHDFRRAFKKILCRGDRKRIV

[2] = DRUGMATRIX: Calcium Channel Type L, Phenylalkylamine radioligand binding (ligand: [3H] (-)-Desmethoxyverapamil (D-888)); format: cell membranes, Rattus norvegicus, Wistar, Brain, Membrane; settings: Not Active = under 50% inhibition at 10 µM
[3] = target: T2, Amine oxidase [flavin-containing] A (Homo sapiens, UniProt P21397); assay: DRUGMATRIX: Monoamine Oxidase MAO-A enzyme inhibition (substrate: Kynuramine); design: species or system BTI-TN-5B1-4; settings: bti-tn-5b1-4; Not Active = under 50% inhibition at 10 µM
T2 sequence (P21397 whole entry): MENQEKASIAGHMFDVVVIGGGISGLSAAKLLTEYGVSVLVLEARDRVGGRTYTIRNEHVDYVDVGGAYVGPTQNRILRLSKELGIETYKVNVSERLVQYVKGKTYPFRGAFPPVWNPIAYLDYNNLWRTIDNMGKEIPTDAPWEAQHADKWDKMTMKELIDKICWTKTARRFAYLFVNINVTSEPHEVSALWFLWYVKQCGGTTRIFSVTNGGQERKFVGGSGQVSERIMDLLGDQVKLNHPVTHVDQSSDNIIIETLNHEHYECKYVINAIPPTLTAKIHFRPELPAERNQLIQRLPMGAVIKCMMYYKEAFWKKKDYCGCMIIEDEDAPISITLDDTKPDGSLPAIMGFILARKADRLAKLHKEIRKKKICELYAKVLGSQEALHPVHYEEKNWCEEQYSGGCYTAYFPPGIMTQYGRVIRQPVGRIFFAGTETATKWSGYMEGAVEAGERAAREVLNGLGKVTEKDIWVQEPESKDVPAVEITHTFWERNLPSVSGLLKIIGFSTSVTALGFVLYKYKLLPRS

[4] = target: T3, Muscarinic acetylcholine receptor M2 (Homo sapiens, UniProt P08172); format: cell membranes, CHO-K1, Membrane; note: in other assays of this panel Not Active means under 50% inhibition at 10 µM
T3 sequence (P08172 whole entry): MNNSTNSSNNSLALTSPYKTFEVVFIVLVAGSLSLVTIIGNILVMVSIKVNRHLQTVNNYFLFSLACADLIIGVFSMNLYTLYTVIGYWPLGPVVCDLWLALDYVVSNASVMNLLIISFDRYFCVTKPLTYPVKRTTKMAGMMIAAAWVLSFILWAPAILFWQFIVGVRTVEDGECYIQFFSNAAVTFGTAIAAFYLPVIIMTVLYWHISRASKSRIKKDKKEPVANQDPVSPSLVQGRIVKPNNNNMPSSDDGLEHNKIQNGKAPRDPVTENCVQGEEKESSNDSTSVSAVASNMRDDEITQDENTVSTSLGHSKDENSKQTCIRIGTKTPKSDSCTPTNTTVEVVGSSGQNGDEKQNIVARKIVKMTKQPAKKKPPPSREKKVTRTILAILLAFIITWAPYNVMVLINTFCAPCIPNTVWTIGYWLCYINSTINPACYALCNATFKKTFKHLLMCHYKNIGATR

Interstitial collagenase = target: T4, Interstitial collagenase (Homo sapiens, UniProt P03956); format: tissue-based, Rheumatoid synovial fibroblasts;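 note: MMP-1 enzyme inhibition assay using a peptide substrate; in other assays of this panel Not Active means under 50% inhibition at 10 µM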
T4 sequence (P03956 whole entry): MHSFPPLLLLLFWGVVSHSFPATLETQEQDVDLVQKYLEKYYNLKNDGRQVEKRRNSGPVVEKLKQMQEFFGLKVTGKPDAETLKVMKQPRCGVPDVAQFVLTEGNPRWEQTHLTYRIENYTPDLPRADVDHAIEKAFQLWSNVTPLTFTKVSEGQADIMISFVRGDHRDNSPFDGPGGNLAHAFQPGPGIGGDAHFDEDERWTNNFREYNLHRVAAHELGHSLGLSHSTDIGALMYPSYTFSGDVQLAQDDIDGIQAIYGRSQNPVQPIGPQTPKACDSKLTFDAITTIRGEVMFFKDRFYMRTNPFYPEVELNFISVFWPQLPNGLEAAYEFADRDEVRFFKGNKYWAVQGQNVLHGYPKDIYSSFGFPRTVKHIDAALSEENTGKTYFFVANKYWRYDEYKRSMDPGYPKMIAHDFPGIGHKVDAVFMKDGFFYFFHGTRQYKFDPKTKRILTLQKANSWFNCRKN

Adenosine receptor A3 = target: T5, Adenosine receptor A3 (Homo sapiens, UniProt P0DMS8); format: cell membranes, CHO-K1, Membrane;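 note: radioligand binding assay with AB-MECA serving as the labeled ligand; in other assays of this panel Not Active means under 50% inhibition at 10 µM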
T5 sequence (P0DMS8 whole entry): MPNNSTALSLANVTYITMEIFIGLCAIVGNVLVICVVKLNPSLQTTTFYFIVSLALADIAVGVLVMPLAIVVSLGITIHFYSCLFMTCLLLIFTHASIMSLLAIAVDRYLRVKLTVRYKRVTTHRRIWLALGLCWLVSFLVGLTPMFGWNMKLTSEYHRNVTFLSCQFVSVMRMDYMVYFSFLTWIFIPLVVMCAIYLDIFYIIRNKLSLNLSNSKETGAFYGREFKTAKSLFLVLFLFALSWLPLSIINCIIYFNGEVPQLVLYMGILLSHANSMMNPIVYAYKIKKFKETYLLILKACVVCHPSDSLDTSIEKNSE

Row | SMILES | IC50 [1] | IC50 [2] | Ki [2] | IC50 [3] | IC50 ([4]; cho-k1) | IC50 (Interstitial collagenase) | IC50 (Adenosine receptor A3; cho-k1) | IC50 ([4]; read-out: IC50) [µM] | Ki ([4]; read-out: Ki) [µM] | IC50 (Adenosine receptor A3; read-out: IC50) [µM] | Ki (Adenosine receptor A3; read-out: Ki) [µM] | IC50 ([2]; read-out: IC50) [µM] | Ki ([2]; read-out: Ki) [µM]
1 | CO[C@@H]1[C@@H](O[C@@H]2O[C@H](C)[C@@H](O[C@H]3C[C@@](C)(O)[C@@H](OC(=O)CC(C)C)[C@H](C)O3)[C@H](N(C)C)[C@H]2O)[C@@H](CC=O)C[C@@H](C)[C@@H](O)/C=C/C=C/C[C@@H](C)OC(=O)C[C@H]1O [KITASAMYCIN] | Not Active | Not Active | Not Active | Not Active | Not Active | Not Active | Not Active |  |  |  |  |  | 
2 | CN(N=O)C(=O)N[C@@H](C=O)[C@@H](O)[C@H](O)[C@H](O)CO [STREPTOZOCIN] | Not Active | Not Active | Not Active | Not Active | Not Active | Not Active | Not Active |  |  |  |  |  | 
3 | CC(C)(C)NCC(O)c1cc(O)cc(O)c1 (centres undefined) [TERBUTALINE] | Not Active | Not Active | Not Active | Not Active | Not Active | Not Active | Not Active |  |  |  |  |  | 
4 | O=C1c2c(O)ccc(O)c2C(=O)c2c(NCCNCCO)ccc(NCCNCCO)c21 [MITOXANTRONE] | Not Active | Not Active | Not Active | Not Active |  | Not Active | Not Active |  |  |  |  |  | 
5 | CN1CCN2c3ccccc3Cc3ccccc3C2C1 (centres undefined) [MIANSERIN] |  |  |  | Not Active |  | Not Active | Not Active |  |  |  |  |  | 
6 | CSc1ccc2c(c1)N(CCC1CCCCN1C)c1ccccc1S2 (centres undefined) [THIORIDAZINE] |  |  |  | Not Active |  | Not Active | Not Active |  |  |  |  |  | 
7 | Clc1ccccc1C(c1ccccc1)(c1ccccc1)n1ccnc1 [CLOTRIMAZOLE] |  |  |  | Not Active |  | Not Active |  | 14.5 | 5.17 | 4.75 | 2.69 |  | 
8 | COC(=O)C1=C(C)NC(C)=C(C(=O)OC)C1c1ccccc1[N+](=O)[O-] [NIFEDIPINE] | Not Active |  |  | Not Active | Not Active | Not Active |  |  |  |  |  | 0.878 | 0.853
9 | CC(C)(O)c1ccccc1CC[C@@H](SCC1(CC(=O)O)CC1)c1cccc(/C=C/c2ccc3ccc(Cl)cc3n2)c1 [MONTELUKAST] |  |  |  | Not Active | Not Active | Not Active |  |  |  |  |  |  | 
10 | COC(=O)[C@@H]1[C@H]2C[C@H]3c4[nH]c5ccccc5c4CCN3C[C@@H]2CC[C@@H]1O [YOHIMBINE] |  | Not Active | Not Active | Not Active | Not Active | Not Active | Not Active |  |  |  |  |  | 
11 | COc1cccc(C2(O)CCCCC2CN(C)C)c1 (centres undefined) [TRAMADOL] | Not Active |  |  | Not Active | Not Active | Not Active | Not Active |  |  |  |  |  | 
